Results reported in PMC6301270 (MedChemComm, 2018).
Entries after “also recorded” stand apart in the source; their conditions may differ. Where two headings read alike, the source gives them in different places.

Tests used:
[1] = system: HeLa cells; assay: HeLa cell assay (cytotoxicity); type: cell-based; details: Homo sapiens
Protocol: HeLa cells were cultured in DMEM medium supplemented with 10% fetal bovine serum and antibiotics (penicillin/streptomycin/amphotericin B) at 37 °C in a 5% CO2 incubator. On the day prior to compound addition, cells were plated in 96-well plates at 2 × 10^4 cells per well. Compounds were added to the cells in 3-fold serial dilutions and incubation at 37 °C in a 5% CO2 incubator continued for 48 hours. Twenty μl resazurin reagent (0.5 mM resazurin in phosphate-buffered saline) was added to each well and, after a 2-hour incubation, fluorescence (Exc560/Em590) was measured in a plate reader. Percentage cell viability in drug-treated wells was calculated from the fluorescent readings obtained relative to those in wells containing control, untreated cells. Plots of % cell viability vs. log[compound] were used to determine IC50 values by non-linear regression analysis using GraphPad Prism.

[2] = system: T.b. brucei (strain 427) bloodstream form parasites; assay: T.b. brucei single concentration screen (10 μM); details: Trypanosoma brucei, read-out: T.b.brucei % viability (10 µM)
[3] = system: T.b. brucei (strain 427) bloodstream form parasites; assay: Trypanosoma brucei assay, dose–response (this study); type: cell-based; details: for IC50: Trypanosoma brucei; for Selectivity index: calculated as IC50(HeLa)/IC50(T.bb)
[4] = system: T. brucei culture; parameters: method as in PMID 22148754, PMID 20360736; details: through selective inhibition of T. brucei N-myristoyl transferase; cited from earlier work
[5] = system: T.b. brucei; parameters: method as in https://www.pathogenbox.org/; details: Table 1, kinetoplastid category; ref https://www.pathogenbox.org/; read-out: T. brucei brucei IC50 (μM) Pathogen Box; cited from earlier work
[6] = system: HepG2 cells; parameters: method as in Pathogen Box; details: ref Pathogen Box, read-out: CC50 against HepG2 cells; cited from earlier work
[7] = system: M. tuberculosis CTP synthase, PyrG; parameters: method as in PMID 28475832; details: cited from earlier work
[8] = system: mycobacterial; parameters: method as in PMID 23268609; details: inhibits the ATPase domain of DNA gyrase B; cited from earlier work
[9] = system: Leishmaniasis donovani; parameters: method as in Duffy et al.; details: ref Duffy et al.; cited from earlier work
[10] = system: plasmodial; parameters: method as in PMID 22390538; details: screen of the SoftFocus kinase library; cited from earlier work
[11] = system: kinetoplastid; parameters: method as in PMID 25740547; details: screen of 1.8 million compounds; cited from earlier work
[12] = Table 2, HeLa cells, 48 hours, resazurin, read-out: HeLa IC50
[13] = Table 2, remaining Pathogen Box, 48 hours at 37 °C, resazurin, read-out: T. brucei brucei IC50 (μM) This study
[14] = pIC50 values (M), read-out: pIC50 (T.b. brucei), this study (converted)

Compound	IC50 ([1]; HeLa, 48 h, read-out: HeLa IC50 (μM))	viability at 10 µM [2]	IC50 ([3]; 48 h, read-out: T. brucei brucei IC50 (μM) This study)	Inhibition of T. brucei culture [4]	IC50 [5]	IC50 [1, 12]	T.b. brucei inhibition in words, this study [3]	IC50 [3, 13]	IC50 [3, 14]	Selectivity index [3]	CC50 [6]	Inhibition of M. tuberculosis CTP synthase, PyrG [7]	In vitro anti-mycobacterial activity [8]	Inhibition of Leishmaniasis donovani [9]	Anti-plasmodial activity [10]	Kinetoplastid inhibition [11]
Cc1nn(C)c(C)c1NS(=O)(=O)c1c(Cl)cc(-c2ccnc(N3CCNCC3)c2)cc1Cl [Compound 1, Cc1nn(C)c(C)c1NS(=O)(=O)c2c(Cl)cc(cc2Cl)c3ccnc(c3)N4CCNCC4]	2.8 µM	2%	11 µM	moderate inhibitor	< 0.13 µM											
CCc1c(C)nc(-n2nc(C)cc2NC(=O)c2ccccc2SC)[nH]c1=O [Compound 39, CCC1=C(C)N=C(NC1=O)n2nc(C)cc2NC(=O)c3ccccc3SC]		2%				2.6 µM	sub-micromolar inhibitors; also recorded: sub-micromolar range	0.59 µM	< 1 µM	4.4	1300 nM					
CC(Oc1ccccc1)C(=O)Nc1nc(-c2ccccn2)cs1 (stereo not shown) [Compound 40, CC(Oc1ccccc1)C(=O)Nc2nc(cs2)c3ccccn3]		2%				8.4 µM	sub-micromolar range	0.76 µM	< 1 µM			moderate inhibitors				
CN1CCN(CCCOc2ncc(Nc3ncc(-c4ccc(C(F)(F)F)c(F)c4)nc3C(N)=O)cn2)CC1 [Compound 46, CN1CCN(CCCOc2ncc(Nc3ncc(nc3C(=O)N)c4ccc(c(F)c4)C(F)(F)F)cn2)CC1]		3%				4.8 µM	sub-micromolar inhibitors; also recorded: sub-micromolar range	0.87 µM	< 1 µM	5.5	3900 nM		potent			
COc1cc(-c2cc(-c3ccc(S(C)(=O)=O)cc3)cnc2N)ccc1O [Compound 53, COc1cc(ccc1O)c2cc(cnc2N)c3ccc(cc3)S(=O)(=O)C]		1%				> 25 µM	sub-micromolar inhibitors; also recorded: sub-micromolar range; also recorded: activity in the nanomolar range	0.33 µM	< 1 µM					moderate inhibitor	potent and selective	
TCMDC 142497 [Compound 70]																potent kinetoplastid inhibitor
